Patent US11291659B2, “P38 kinase inhibitors reduce DUX4 and downstream gene expression for the treatment of FSHD” (Fulcrum Therapeutics, Inc., priority 2017, dated 2022)

Tests used:
[1] = test system: MBD3L2 mRNA (DUX4 downstream gene); test: MBD3L2 mRNA expression by qPCR in FSHD myotubes; format: cell-based, Human; details: for IC50: Homo sapiens, Myotube, read-out: IC50, reduction of MBD3L2 mRNA expression, FSHD myotubes, realtime PCR
Experimental: Cell Plating: Performed three days prior to treatment, 10000 cells were plated per well on gelatinized 96-well plates, or 100000 cells on gelatinized 6-well plates.
(§1) For ASO or compound treatments cells were plate into 100 μL of Promocell growth medium containing ASO or compounds at the described concentrations.
(§2) On day 0, change to differentiation media. Remove plates from the incubator and aspirate the growth medium, Wash once with PBS, 100 μL for 96-wells and 1 mL for a 6-well plate, Add 100 μL or 2 mL of differentiation medium per well, 96- or 6-well respectively. Add antisense oligonucleotides or drug at the desire concentration and put back in the incubator. Fusion should start within day 1-2. Incubate for 3-4 days.
(§3) Cells were removed from the incubator and media aspirated. Quickly lysed following one of the following protocols: For lysis in 96-well plates direct lysis and one-step RT-Preamp qPCR protocol described below. For each 96-well prepare a mix containing: 19.5 μL Roche Realtime Ready lysis buffer, 0.25 μL RNAse inhibitor, 0.25 μL DNAseI (from Thermo not the included one in the kit). 20 μL of the mix was added to each well, mix 5 times and incubated 5 minutes at RT or alternatively shaken vigorously for 15 minutes. Lysis was observed under the microscope. Samples were frozen −80° C. at least for 15 minutes,
(§4) For qPCR, dilute 1:10 and use 2 μL for a 10 μL 1-step RT-qPCR reaction. For detection of GAPDH, RPLP0, TBP, MYOG, FRG1, MYH3, ACTN2, etc.). Per 10 μL reaction: RNA (1:10 dilution lysate) 2 μL, Fast Advanced Taqman Master Mix (2×) 5 μL, RT enzyme mix (40×) 0.25 μL, Taqman probe set (20×) 0.5 μL, H2O 2.25 μL. The following reaction protocol was run on the QuantStudio 7: 48° C. for 15 min, 50° C. for 2 min, 95° C. for 30 sec, 40×, 95° C. for 5 sec, 60° C. for 30 sec, then plates were read as specified by the manufacturer (Thermo). For 1-step RT-Preamplification used for detection of DUX4 downstream genes, i.e. MBD3L2, ZSCAN4, LEUTX, TRIM43, KHDC1L. POL2RA-VIC was used as Endogenous control). Per 10 μL reaction: RNA (1:10 dilution lysate) 2.25 μL, Taqman Pre-Amp Master Mix (2×) 5 μL, RT enzyme mix (40×) 0.25 μL, Taqman probe set (0.2×)*2.5 μL, * Pooling the TaqMan Assays: equal volumes of each 20× TaqMan® Gene Expression Assay, up to 100 assays were combined. For example, to pool 50 TaqMan assays, 10 μL of each assay were combined in a microcentrifuge tube. The pooled TaqMan assays were diluted using 1×TE buffer so that each assay is at a final concentration of 0.2×. For the above example, add 500 μL of 1×TE buffer to the pooled TaqMan assays for a total final volume of 1 mL. The QuantStudio7 protocol was used 48° C. 15 min, 95° C. 10 min, 10 cycles: 95° C. 15 sec, 60° C. 4 min, 4° C. infinite. Samples were then diluted to 50 μL and continue with the qPCR step. Per 10 μL reaction: Preamp dilution 2 μL, Fast Advanced Taqman Master Mix (2×) 5 μL, Taqman probe set (20×) 0.5 μL, H2O 2.5 μL. When multiplexing the volume was adjusted to 10 μL total). The following program was run on the QuantStudio7: 50° C. for 2 min, 95° C. for 30 sec, 40×, 95° C. for 5 sec, 60° C. for 30 sec, plates were read as per the manufacturers specifications (Thermo).
(§5) After treatment, the control and treated cells were processed for realtime PCR quantification of MBD3L2 mRNA (DUX4 downstream gene) and myogenin (MYOG) mRNA (control) expression.

FSHD myotubes = test: Myotube formation / fusion, MHC and DAPI staining; format: cell-based, Human; details: immortalized FSHD myotubes; 1, 0.33, 0.11, 0.037 μM; 4 days
Experimental: as §2
Briefly, cells were fixed in 4% paraformaldehyde and […] for 10 min at room temperature. Cells were permeabilized with PBST (1×PBS solution with 0.1% Triton X-100) before blocking with 10% Normal Donkey Serum or 3% BSA (NDS) in PBST. […] DUX4 was detected by immunocytochemistry using the E5-5 antibody in differentiated FSHD myotubes. Activated Caspase-3 was detected cell signaling antibody that we're using for ICC, Asp175 (https://www.cellsignal.com/products/primary-antibodies/cleaved-caspase-3-asp175-antibody/9661).
Immortalized FHSD myotubes were differentiated and treated with DMSO vehicle control or FTX-1821 at concentrations of 1 μM, 0.33 μM, 0.11 μM, or 0.037 μM. […] The nuclei in myotubes were quantified according to MHC staining (FIG. 8B).

DUX4 target genes = test: RNA-seq profiling of FSHD myotubes; format: cell-based, Human
Source text: The 40 bp single-end reads from Illumina had good quality by checking with FastQC (http://www.bioinformatics.babraham.ac.uk/projects/fastqc/). Reads were mapped to hg19 using TopHat v2.1.1. The gene model for TopHat was created by merging known Gene in gtf format with kgXref table. Both known Gene and kgXref were downloaded from UCSC table browser in hg19 assembly. The read counts were obtained using feature Counts function from Subread package with strandness option as −r 2. Reads were normalized with DESeq2. […] Consequently, Combat was used for reducing this batch effect. Calculated standard RPKM expression values. Total gene signature is very small and defined at standard statistical cutoffs: 86/19,799 mRNA genes. DUX4-regulated gene signature is majority of total signature: 77/86 mRNA genes=90%. Non-DUX4 regulated genes is minority of total signature with moderate fold changes: 9/86 mRNA genes=10%; 2-2.7×log FC.
In addition, gene expression was also determined in wild type myotubes treated with DMSO. Three replicates for each condition were analyzed by RNA-seq and genes were clustered by the direction and intensity of change.

[2] = test system: phospho MK2 to total MK2 ratio; test: p38 system target engagement in rat trapezius muscle; format: in vivo, Sprague-Dawley rats
Experimental: Pharmacodynamic analysis of p38 system target engagement in muscle tissue was performed by measuring the change in phosphor MAP kinase-activated protein kinase 2 (MK2) to total MK2 ratio before and after drug treatment.

[3] = test system: DUX4 dependent target genes; test: Prediction for FSHD patient muscle from rat muscle concentrations and in vitro myotube data; set-up: species or system Human; details: at Cmax, FSHD patient muscle biopsies
Experimental: P38 system target engagement persisted for at least 12 hours following the single dose of FTX-1821 (FIG. 15). P38 system target engagement in trapezius muscle was maximal when plasma and muscle concentrations of FTX-1821 were greater than 20 ng/mL or ng/g and declined at timepoints when exposures decreased. The muscle concentrations of FTX-1821 achieved in the rat study are predicted to result in >70% reduction at Cmax in DUX4 dependent target genes in FSHD patient muscle biopsies based upon in vitro data in FSHD myotubes (above).

myogenin (MYOG) mRNA = test: Myogenin (MYOG) mRNA expression by qPCR in FSHD myotubes (control gene); format: cell-based, Human
Experimental: as §1, §2, §3
as §4, with “For the above example, add 500 μL of 1×TE buffer to the pooled TaqMan assays for a total final volume of 1 mL. The QuantStudio7 protocol was used 48° C. 15 min, 95° C. 10 min, 10 cycles: 95° C. 15 sec, 60° C. 4 min, 4° C. infinite. Samples were then diluted to 50 μL and continue with the qPCR step. Per 10 μL reaction: Preamp dilution 2 μL, Fast Advanced Taqman Master Mix (2×) 5 μL, Taqman probe set (20×) 0.5 μL, H2O 2.5 μL. When multiplexing the volume was adjusted to 10 μL total).” left out
as §5

[4] = test system: DUX4 and downstream genes ZSCAN4, TRIM43, MBD3L2, LEUTX, KHDC1L; test: DUX4-regulated downstream genes by real time PCR after DUX4 ASO; format: cell-based, Human; details: FSHD myotubes
Experimental: as §1
Wild type myotubes were treated with DMSO control vehicle, and mature patient-derived FSHD myotubes that express DUX4 protein were treated with DMSO vehicle control or 1 μM of a DUX4 sequence-directed antisense oligonucleotide (ASO; FTX-2) purchased from Exiqon. After treatment, the myotubes were lysed in 19.5 μL of Roche Real Time Ready Lysis Buffer, 0.25 μL of DNAse1 (Ambion, AM2222), 0.25 μL of Protector RNase Inhibitor (Roche, 3335402001), and the RNA was collected in an RNeasy Micro Kit Master Mix. Expression levels of DUX4-regulated downstream genes (ZSCAN4, TRIM43, MBD3L2, LEUTX, and KHDC1L) was determined by real time PCR (ThermoFisher Scientific, 4484262), ZSCAN4 Taqman Assay (ThermoFisher Scientific, Hs00537549_m1, FAM-MGB), MYOG Taqman Assay (ThermoFisher Scientific, Hs01072232_m1, JUN-QSY), RPLP0 Taqman Assay (ThermoFisher Scientific, Hs99999902_m1), and/or LEUTX Taqman Assay (ThermoFisher Scientific, Hs00418470_m1). Ct values were extracted from QuantStudio Realtime PCR software, and Genedata was used to calculate relative levels of expression using POLR2A as a housekeeping gene.

[5] = rat trapezius muscle, single oral dose 0.3 mg/kg

## Cc1c(F)cc(C(=O)NC2CC2)cc1-c1ccc(C(=O)NCC(C)(C)C)cn1 [FTX-1821]
[1]; FSHD1 and FSHD2 primary patient myoblast lines, 1 μM
  MBD3L2 mRNA expression: reduction of MBD3L2
[1]; myotubes of four FSHD patient lines FTCE-016, -020, -197, -196, 1 μM
  MBD3L2 expression levels: reduced in all of the FSHD lines
FSHD myotubes
  myotube formation or fusion: no changes
DUX4 target genes; 1 μM vs DMSO, RNA-seq
  Non-DUX4-regulated genes in total signature: 9/86
  fold changes of non-DUX4-regulated genes: 2-2.7 × log FC
DUX4 target genes; 1 μM, compared with wild type cells
  expression of differentially expressed (DUX4 pathway) genes: normalized
[2]; rat
  plasma concentration at which inhibition of the p38 system in muscle was maximal: greater than 20 ng/mL
[2]; rat trapezius muscle
  plasma and muscle concentrations at which target engagement was maximal: greater than 20 ng/mL or ng/g
[2]; [5]
  phospho MK2 to total MK2 ratio: significantly decreased
  time to decrease of phospho MK2 to total MK2 ratio: ≤ 1 h
[2]; rat, single oral dose 0.3 mg/kg
  persistence of p38 system target engagement: at least 12 hours
[3]
  predicted reduction in DUX4 dependent target genes: > 70%

## COc1nccc(-c2c(-c3ccc(F)cc3)ncn2C2CCC(O)CC2)n1 (stereo not shown) [SB239063]
Myogenin (MYOG) mRNA
  MYOG mRNA expression: no impact

## CCc1nc(-c2cccc(C)c2)c(-c2ccnc(NC(=O)c3ccccc3)c2)s1 [TAK-715, N-(4-(2-ethyl-4-(3-methylphenyl)-1,3-thiazol-5-yl]-2-pyridyl]benzamide]
[1]
  IC50: < 10 nM
Myogenin (MYOG) mRNA
  MYOG mRNA expression: no impact

## NC(=O)c1ccc(N(C(N)=O)c2c(F)cccc2F)nc1-c1ccc(F)cc1F [VX-702, 2-(2,4-difluorophenyl)-6-(1-(2,6-difluorophenyl)ureido)nicotinamide]
[1]
  IC50: < 10 nM
Myogenin (MYOG) mRNA
  MYOG mRNA expression: no impact

## FTX-2: DUX4 sequence-directed antisense oligonucleotide purchased from Exiqon, CAGCGTCGGAAGGTGG (SEQ ID NO: 1) (listed as DNA, chemistry not given here)
[4]; 1 μM vs DMSO
  expression of DUX4 and target genes ZSCAN4, TRIM43, MBD3L2, LEUTX, KHDC1L: reduced amounts
[4]; different dilutions
  DUX4 and downstream gene MBD3L2 expression: dose dependent reduction
